According to patent US7875604B2, “Compounds that inhibit HIV particle formation” (University of Virginia Patent Foundation, priority 2004, dated 2011):

Key:
[1] = tested on: U1 cells latently infected with HIV-1; assay: U1 latency activation assay (TNF-α induced, supernatant reverse transcriptase); format: cell-based; details: U1 cell assay, analogs, Table 8
Experimental: U1 cells were obtained from the AIDS Research and Reference Reagent Program and maintained under standard culture conditions in RPMI 1640 supplemented with 10% fetal bovine serum (heat inactivated), 2 mM L-glutamine, 100 U/mL penicillin and 100 μg/mL streptomycin. U1 cells are derived from the histocytic leukemia cell line U937, and contain an integrated copy of a cytokine and/or phorbol inducible provirus (HIV-1IIIB). Cultures were maintained in such a way as to ensure exponential growth of the populations. Addition of TNF-α to the cell culture induces HIV-1, so that inhibition of virus production indicates an inhibition of a post-integration function of the HIV-1 life cycle. This is where an inhibitor of Rev function would be expected to act. […]
(§1) At the time of the assay, cells were collected by centrifugation and counted by hemacytometer. If cell viability by Trypan Blue dye exclusion was less than 70% the assay was terminated. The cells were adjusted to 5×10^4 cells/mL and 100 μL placed in 96 well plates with 100 μL media containing a final concentration of 5 ng/mL TNF-α and the test compound. Cultures were incubated for 3 days and supernatants harvested. Compound toxicity was determined by MTS dye reduction. Virus expression was measured by supernatant reverse transcriptase activity.
Reverse transcriptase was assayed to measure virus particle release as described above for the PBMC assay.
(§2) Compounds were tested in the U1 latency assay using the maximum high-test concentration possible based on the supplied stocks which are listed in table 3. Compounds were tested using the maximum high-test concentration possible based on the supplied stocks. Compounds were prepared at a 2× high-test concentration by combining drug stock with tissue culture media at a ratio of 5 μL of drug to 995 μL of media. This 2× high-test sample was subsequently serially diluted in tissue culture media using 1/2 log dilutions. This series of 2× concentrated drug was subsequently diluted 1:1 by combining with an equal volume of cells in media in the 96-well plates used for the assay. Temacrazine a known inhibitor of HIV transcription was used as a control compound that is active in the post-integration part of the HIV life cycle.
(§3) Compounds were tested using the maximum high-test concentration possible based on the supplied stocks. Compounds were prepared at a 2× high-test concentration by combining drug stock with tissue culture media at a ratio of 5 μL of drug to 995 μL of media. This 2× high-test (HT) sample was subsequently serially diluted in tissue culture media using 1/2 log dilutions. This series of 2× concentrated drug was subsequently diluted 1:1 by combining with an equal volume of cells in media in the 96-well plates used for the assay.

[2] = tested on: U1 cells; assay: MTS staining for cell viability in U1 cell assay; format: cell-based; details: analogs, Table 8, MTS, read-out: TC50 (the source's name)
Experimental: as §1
At assay termination, the assay plates were stained with the soluble tetrazolium-based dye MTS (CellTiter 96 Reagent, Promega) to determine cell viability and quantify compound toxicity as described for the PBMC assay.
as §2, §3

| Compound | IC50 [1] [µM] | CC50 [2] [µM] |
| --- | --- | --- |
| Cc1cc2c(N)c(C(N)=O)sc2nc1C [Compound 328] | 1.06 | 37 |
| Clc1ccc(-c2nc(Nc3ccc(Oc4ccccc4)cc3)c3ccccc3n2)cc1 [Compound 753] | 47.1 | 48 |
| FC(F)(F)c1cccc(Nc2nc(-c3ccccc3)nc3ccccc23)c1 [Compound 722] | 21.9 | 35 |
| COCc1cc(C)nc2sc(C(N)=O)c(N)c12 [Compound 320] | 0.522 | > 75 |
| O=C(c1cc(Cl)nnc1Cl)N1CCOCC1 [Compound 512] | 26.3 | > 75 |
| CN1CCc2nc3sc(C(N)=O)c(N)c3cc2C1 [Compound 319] | 20.2 | > 37.5 |
| Brc1ccc(Nc2nc(-c3ccncc3)nc3ccccc23)cc1 [Compound 734] | 4.07 | > 12.5 |
| COc1ccc(-c2cnc(S(C)(=O)=O)nc2)cc1 [Compound 615] | 11.9 | > 75 |
| COc1ccc2nc3c(c(N)c2c1)CCCC3 [Compound 211] | 9.11 | 48.5 |
| Cc1ccc(-c2cc(-c3ccccc3)nc3sc(C(N)=O)c(N)c23)cc1 [Compound 323] | 0.745 | 22.6 |
| Cc1n[nH]c2nc3ccc(Br)cc3c(-c3ccccc3)c12 [Compound 112] | 1.08 | > 50 |
| Oc1nc(S)ncc1-c1ccccc1 [Compound 612] | > 75 | > 75 |
| Nc1c2c(nc3ccc([N+](=O)[O-])cc13)CCCC2=O [Compound 213] | 0.826 | 58.6 |
| COc1cc2cc3c(=O)[nH]c(-c4ccc(C)cc4)nc3nc2cc1OC [Compound 114] | 14.4 | > 75 |
| Cc1ccc(Nc2ncnc3ccccc23)cc1C [Compound 719] | 1.73 | > 75 |
| COc1ccccc1Nc1nc(-c2ccccc2O)nc2ccccc12 [Compound 751] | 71.4 | > 75 |
| COc1ccccc1NC(=O)c1cc(Cl)nnc1Cl [Compound 511] | 14.3 | 17.3 |
| Cc1nc(Oc2ccccc2)c2ccccc2n1 [Compound 756] | 1.74 | 52 |
| CCOC(=O)c1sc(Cl)nc1C(F)(F)F [Compound 411] | > 75 | > 75 |
| COc1ccc(-c2c(C(C)=O)c(C)nc3sc(C(N)=O)c(N)c23)cc1 [Compound 311] | 1.65 | > 75 |
| Cc1ccc2c(N)c(C(N)=O)sc2n1 [Compound 314] | 2.11 | > 75 |
| CN(C)c1ccnc2sc(C(N)=O)c(N)c12 [Compound 325] | 0.281 | > 75 |
| COc1cc2cc(C(=O)Nc3ccccc3)c(N)nc2cc1OC [Compound 113] | 27.4 | > 75 |
| COc1ccc(-c2cnc(OC(C)(C)C)nc2OC(C)(C)C)cc1 [Compound 618] | 18.3 | 53.6 |
| O=C(Nc1cccc(F)c1)c1sc(Cl)nc1C(F)(F)F [Compound 413] | 20.7 | 50.7 |
| CN1CCN(C(=O)c2cc(Cl)nnc2Cl)CC1 [Compound 513] | 7.05 | > 75 |
| NC(=O)c1sc2nc(-c3cccs3)cc(-c3ccc(F)cc3)c2c1N [Compound 322] | 8.84 | 17.4 |
| CSc1ncc2c(n1)[nH]c1ccccc12 [Compound 616] | 0.915 | > 75 |

| Compound | IC50 [1] [µM] | CC50 [2] [µM] |
| --- | --- | --- |
| O=C(Nc1ccccc1F)c1sc(Cl)nc1C(F)(F)F [Compound 415] | 37.3 | 51.2 |
| N#Cc1ccc(NC(=O)c2sc(Cl)nc2-c2ccccc2)cc1 [Compound 421] | > 75 | > 75 |
| Oc1ccccc1-c1nc(Nc2ccc(F)c(F)c2)c2ccccc2n1 [Compound 750] | > 75 | > 75 |
| COc1ccc(Nc2nc(-c3ccccc3F)nc3ccccc23)cc1 [Compound 749] | 2.05 | 19.5 |
| Cc1nc(Cl)sc1C(=O)Nc1ccc(C(C)(C)C)cc1 [Compound 420] | 6.8 | > 75 |
| O=C(c1cc(Cl)nnc1Cl)N1CCCC1 [Compound 514] | > 75 | > 75 |
| CC(=O)c1ccc(Nc2nc(-c3ccccc3)nc3ccccc23)cc1 [Compound 755] | 1.78 | > 75 |
| O=C(Nc1cccc(C(F)(F)F)c1)c1sc(Cl)nc1C(F)(F)F [Compound 414] | 14.5 | 14.7 |
| Cc1cc(C(F)(F)F)c2c(N)c(C(N)=O)sc2n1 [Compound 318] | < 0.237 | > 75 |
| CCOc1ccccc1Nc1nc(-c2ccc(C)cc2)nc2ccccc12 [Compound 730] | > 75 | > 75 |
| Fc1ccccc1-c1nc(Nc2cccc(C(F)(F)F)c2)c2ccccc2n1 [Compound 748] | 10.5 | 33 |
| Cc1ccc(NC(=O)c2sc(Cl)nc2-c2ccccc2)c(C)c1 [Compound 423] | 42.4 | > 75 |
| COc1ccc(-c2cnc(OC(C)(C)C)nc2OC(C)(C)C)cc1OC [Compound 617] | > 75 | > 75 |
| CCOC(=O)c1c2c(nc3sc(C(N)=O)c(N)c13)CCCC2 [Compound 327] | 0.601 | 65.8 |
| Oc1nc(S)nc(O)c1-c1ccccc1 [Compound 613] | > 75 | > 75 |
| CCOC(=O)c1ccc(Nc2ncnc3ccccc23)cc1 [Compound 720] | 3.66 | > 75 |
| Cc1ccc(NC(=O)c2sc(Cl)nc2-c2ccccc2)cc1C [Compound 422] | 14.3 | > 75 |
| Cc1ccc(-c2cc(C(F)(F)F)c3c(N)c(C(N)=O)sc3n2)cc1 [Compound 332] | > 75 | 22.5 |
| Cc1nc(Cl)sc1C(=O)Nc1ccc(C(F)(F)F)cc1 [Compound 418] | 2.18 | > 75 |
| COC(=O)c1cccc(Nc2nc(-c3ccccc3O)nc3ccccc23)c1 [Compound 752] | > 75 | > 75 |
| CCc1c(C)nc2sc(C(=O)c3ccc(Cl)cc3)c(N)c2c1C [Compound 313] | > 50 | > 50 |
| Cc1cccc(-c2nc(Nc3ccc(I)cc3)c3ccccc3n2)c1 [Compound 718] | 47.2 | 50.1 |
| COc1ccc(-c2cc(-c3ccc(OC)cc3)c3c(N)c(C(N)=O)sc3n2)cc1 [Compound 339] | 1.28 | 38.3 |
| Cc1nc2sc(C(N)=O)c(N)c2c(C)c1CC(=O)c1ccccc1 [Compound 315] | 0.75 | > 75 |
| NC(=O)c1sc2nc(-c3cccs3)cc(C(F)(F)F)c2c1N [Compound 317] | > 75 | > 75 |
| Cc1ccc(-c2nc(Nc3ccc(I)cc3)c3ccccc3n2)cc1 [Compound 729] | > 75 | > 75 |
| O=C(Nc1ccccc1)c1sc(Cl)nc1C(F)(F)F [Compound 412] | 16.7 | 51.7 |
